The text below walks through data of patent US20230151326A1, “Simplified Compositions and Methods for Generating Neural Stem Cells from Human Pluripotent Stem Cells” (Wisconsin Alumni Research Foundation, priority 2012, published 2023).

This assay has as its system H9 hESCs. Kind of assay: Flow cytometry of neural markers in H9 hESCs differentiated in neural differentiation media. Format: cell-based, human. Particulars: day 9, E6 medium containing 1 μM RA. On the procedure: hPSCs were washed once with phosphate-buffered saline (PBS; Invitrogen), incubated with Accutase® (Invitrogen) for 3 min, and collected by centrifugation. hPSCs were then plated onto Matrigel® or VTN-NC at a density of 2×10^5 cells/cm^2 in E8 medium containing 10 μM ROCK inhibitor and cultured overnight. The following morning, cells were changed to E6 medium, E6 containing 10 μM SB431542 (Cellagentech), or E6 containing 10 μM SB431542 and 200 ng/mL recombinant human noggin (R&D Systems) to initiate differentiation. E6 medium is the same formulation as E8 medium but without FGF2 and TGFβ1. Medium was changed every day until cells were utilized for analysis. […]
Cells were harvested from 6- or 12-well plates by washing once with PBS and incubating with Accutase® for 3-5 min. […] After washing twice with PBS containing 0.75% BSA, cells were analyzed on a FACSCanto™ (BD Biosciences) and resultant data were analyzed using Cyflogic software. Positive events were determined by gating the top 1% of the IgG control histograms, and all flow data presented are from biological replicates.
H9 hESCs were seeded at 2×10^5 cells/cm^2 on Matrigel® in E8 medium plus ROCK inhibitor as described above. […] Also, the morphological characteristics of the cells at day 6 were assessed by bright field microscopy. […]
A general note: A flow cytometer gives signals particle by particle.

With `CC1=C(/C=C/C(C)=C/C=C/C(C)=C/C(=O)O)C(C)(C)CCC1` [retinoic acid], the “SOX1 expression by flow cytometry” value was “up to 62±16%”.
